Literature values in patent US20070092572A1, “Bone cement compositions and the like comprising an RNAIII-inhibiting peptide” (priority 2005, published 2007).
Where two headings read alike, the source gives them in different places. Where no end group is shown, it is not given here.

What was measured:
S. aureus LS-1 [1] = details: Arthritis, mouse, strain LS-1, +RIP
S. aureus 8325-4 = details: Keratitis, rabbit, strain 8325-4, +RIP
S. aureus LS-1 [2] = details: Sepsis, mouse, strain LS-1, +RIP
S. aureus Smith diffuse = details: Cellulitis/sepsis, mouse, strain Smith diffuse, +RIP
S. aureus Newbould/AE-1 = details: Mastitis, cow, strain Newbould/AE-1, +RIP
[3] = test system: MRSA, MRSE, VISA, VISE, GISA, GISE, MSSA, MSSE; details: Graft injection, rat, +RIP
S. aureus MS = details: Osteomyelitis, rabbit, strain MS, +RIP
S. aureus = details: non-amidated versus amide form

| Substance | % animals disease free (S. aureus LS-1 [1]) [%] | % animals disease free (S. aureus 8325-4) [%] | % animals disease free (S. aureus LS-1 [2]) [%] | % animals disease free (S. aureus Smith diffuse) | % animals disease free (S. aureus Newbould/AE-1) | % animals disease free [3] | % animals disease free (S. aureus MS) [%] | activity of the peptide form (S. aureus) |
| --- | --- | --- | --- | --- | --- | --- | --- | --- |
| YSPWTNF(-NH2) (YSPWTNF-NH2) [RIP, amide form of a synthetic RIP analogue] | 60 | 40 | 44 | Up to 100% | 70-100% | Up to 100% | 58 |  |
| non-amidated form of synthetic RIP: non-amidated form of the synthetic RIP analogue YSPWTNF (YSPWTNF-OH) |  |  |  |  |  |  |  | inactive |
